Source: patent US9845457B2, “Maintenance of genomic stability in cultured stem cells” (Cedars-Sinai Medical Center, priority 2010, dated 2017)

How the values were obtained:
[1] = system: human cardiosphere-derived cells; assay: Intracellular ROS levels (DCF fluorescence) after 24 hours short-term exposure; format: cell-based; conditions: 20% O2, antioxidant A 100-1,000,000-fold dilution, B 0.1-1000 μM, catalase 0.1-1000 units/ml, H2O2 0.1-1000 μM
Protocol: To assay intracellular ROS levels (ROS levels), twice-passaged CDCs were seeded in 6- or 96-well plates coated with 20 μg/ml fibronectin, and continuously cultured under the abovementioned four different conditions. At about 90% confluence, cells were incubated with 10 μM 2′,7′-dichlorodihydrofluorescein diacetate (DCFH-DA) (Invitrogen) for 60 min to allow DCFH-DA to diffuse into cells. The DCF fluorescence intensity in cells cultured in 96-well plates is directly determined using SpectraMax® M5 (Molecular Devices Corp.) with an excitation wavelength of 495 nm and an emission wavelength of 520 nm. Cells cultured in 6-well plates were trypsin-treated and fixed. The DCF fluorescence intensity in cells was analyzed using a FACS Calibur flow cytometer with CellQuest software (BD Biosciences).
Twice-passaged cells were seeded in 6- or 96-well plates coated with 20 μg/ml fibronectin. […] After 24 hours of culture, the DCF fluorescence intensity in cells was measured using the same methods as disclosed above.
CDCs were initially maintained in traditional 5% CO2/20% O2 culture condition and then seeded into 96-well plates and cultured for 24 hours under experimental conditions. […] Dev. for six separate experiments using different twice-passaged CDCs. (a.u.: arbitrary units. * p<0.01, †p<0.05 vs. the baseline levels, represented by “0” on the x-axis). […]

[2] = system: human CDCs; format: cell-based
Protocol: CDCs were expanded in conventional conditions under 20% O2 as described above. Twice-passaged CDCs and ES cells were used in these Examples. Cells were seeded in 96-well plates coated with 20 μg/ml fibronectin. […] After 24 hours of culture, cells were fixed, permeabilized and stained with rabbit polyclonal antibody against γ-H2AX (phosphor 5139, Abeam Inc.). After being washed, the cells were stained with a PE-conjugated secondary antibody and 4,6-diamidino-2-phenylindole (DAPI). Quantification of cells positive for γ-H2AX foci was performed by fluorescence microscopy (×40 magnification). Briefly, at least 5 images were captured from each culture condition from randomly-selected fields using Q-imaging (RETIGA EXi FAST, Canada) with the same exposure time. Cells with γ-H2AX foci in the nuclei were counted by a single observer blinded to treatment regimen, and the percentage of cells with γ-H2AX foci in each culture condition was used for statistical analysis.

[3] = system: ATR, Rad50, Rad51, Chk1, Chk2; assay: Western blotting of other DNA repair factors after 24 hours short-term exposure; format: cell-based, human; conditions: 20% O2, high concentrations
Protocol: To examine the protein levels of ATM and other DNA repair-related factors, total protein was purified from twice-passaged CDCs cultured under the abovementioned four different conditions, using well-established laboratory techniques. Briefly, harvested cells were homogenized in a lysis buffer containing a protease inhibitor mixture (Roche Applied Science) on ice. After centrifugation at 15,000 rpm for 10 min, the supernatant was collected for experiments. The equivalent of 30 μg of total protein was loaded onto 5% or 10% SDS-PAGE gels, and then transferred to PVDF membranes. […] Quantitation for blots was done by Quantity One software, and expressions were normalized by β-actin.
Twice-passaged cells were seeded in 6-well plates coated with 20 μg/ml fibronectin. […] The expression of ATM and other DNA repair-related factors was assessed by Western blotting as described above.

Row | Compound | ROS levels, dose response [1] | percentage of CDCs with γ-H2AX foci (DNA damage), dose response [2] | expression levels of ATR, Rad50, Rad51, Chk-1, and Chk-2 [3]
1 | OO [Antioxidant H2O2, hydrogen peroxide] | increased | increased DNA damage dose-dependently | increased
2 | catalase | decreased | A similar result | slightly or obviously decreased
